The target of test [1] is T1, Ghsr1α (Mus musculus, UniProt Q99P50, INS247CCPGCC).
T1 construct: Mouse full length Ghsr1α cDNA (NCBI Gene ID: 208188) was purchased from OriGene (MR226073); expressed in transfected cells; host or cells: HEK 293T
Briefly: FlAsH-based FRET assay of Ghsr1α activity in HEK 293T cells. In kind it is cell-based. The conditions noted are these: 50 μM; Ghsr1α FlAsH/ECFP-expressing HEK 293T cells.
Text: FlAsH-based FRET was created by structural dynamics of Ghsr1α with FlAsH in the intercellular loop 3 and enhanced cyan fluorescent protein (ECFP) in the C-terminus (Ghsr1α^FlAsH/ECFP).
FlAsH-based FRET. […] The CCPGCC motif which has higher binding affinity for FlAsH was inserted in the third intracellular loop between Va1247 and Gly248 of Ghsr1α cDNA or between Thr245 and Gly246 of Drd1 cDNA. […] Fluorescence signals were monitored on microplate reader (BioTek Cytation 5) before and after the treatments. […] Area scanning read mode was used to correct artificial inaccuracies. The FRET ratio (FFlAsH/FECFP) was calculated according to equation as previously reported (69):
The terms a and b are correction factors for the two leakages mentioned above. a is the ratio of the direct emission of donor, ECFP at 535 nm, to its emission at 475 nm when excited at 425 nm which was calculated with cells transfected with pcDNA3-Ghsr1α^FlAsH/ECFP or pcDNA3-Drd1^FlAsH/ECFP only. b is the ratio of the direct emission of FlAsH at 535 nm when excited at 425 nm to its emission at 535 nm when excited at 500 nm which was calculated with FlAsH labeled untransfected cells.

A further test addresses T2, Aβ/Ghsr1α complex (Mus musculus, UniProt Q99P50).
T2 construct: endogenous in cells; host or cells: primary mouse hippocampal neurons; Aβ42 peptide purchased (GenicBio, A-43-T-1000)
Briefly: Duolink PLA of Aβ/Ghsr1α complex in cultured hippocampal neurons. Format: cell-based. The conditions noted are these: oligomeric Aβ42 1 μM, 24 hours; 1.5 μM MK0677, 2 μM SKF81297, or in combination. The text has this: (§1) Duolink In Situ Proximity Ligation Assay (PLA). […] PLA analysis was referred to previous report (66 67). NIH Image J was used for PLA signal quantification.
(§2) Agonist treatment on primary cultured neurons. […] The exposure was followed by immunostaining to examine the effects of Ghsr1α/Drd1 co-activation on Aβ induced synaptic loss or Ghsr1α/Drd1, Aβ/Ghsr1α interaction as described in previous sections.

For test [2], the system named is 5×FAD mice. As to conditions: recent study, higher dose of MK0677; cited from earlier work.
Test [3] concerns the target Ghsr1α (Homo sapiens, UniProt Q92847). The conditions noted are these: cited from earlier work.
Test [4] concerns hippocampal CA3-CA1 pathway. As to the kind of experiment: Long-term potentiation (fEPSP) in hippocampal slices. As to conditions: MK0677 1.5 μM, SKF81297 2 μM, alone or in combination.
Description: For electrophysiological experiments, mice were anesthetized with isoflurane and decapitated. […] Slices were allowed to rest for 30 minutes after being transferred to the recording chamber before recordings began. Recordings of local field potentials (LFPs) were performed on an Axon Multiclamp 700B amplifier (Molecular Devices), and data were acquired and analyzed using AxoGraph X (AxoGraph Scientific). A tungsten concentric bipolar microelectrode (World Precision Instruments), and a recording glass electrode (1.5 MS2) filled with recording ACSF, were placed approximately 200 μm apart in the Schaffer collateral-commissural pathway in the CA1 region of the hippocampus. Pulses were delivered in 30 seconds intervals. Before baseline recordings commenced, input-output curves were taken, using 25-150 μA stimulation currents in 25 μA steps. Three sweeps were sampled at each stimulation intensity and averaged to represent the voltage response at each step. Recordings of baseline responses lasted for at least 40 minutes. Stimulation intensity was set to approximately 40% of the minimum intensity required to evoke the maximum response (based on the input-output curve). The stimulation intensity was kept consistent throughout the duration of the experiment. […] LTP was induced using a theta burst stimulation (TBS) protocol consisting of 10 bursts (5 pulses at 100 Hz) repeated at 5 Hz delivered two times 30 seconds apart. After LTP induction, LFPs were recorded for an additional 60 minutes. The slope of the field excitatory postsynaptic potential (fEPSP) was measured in Axograph scientific software and sweeps were averaged in bins of 5 for both the baseline and post LTP induction periods. Changes in LFPs are expressed as percentage change from the averaged baseline values.
Test [5] concerns 5×FAD mice. As to the kind of experiment: Neurogenesis (DCX staining) in the dentate gyrus. As to conditions: MK0677 1.5 mg/kg, daily i.p., one month. Format: in vivo, mouse. As for the experimental part: (§3) Immunocytochemistry. […] NIS element software was used for image analysis. “Objective Count” dialog was used for intensity measurement. […] The overlapped dots represent synapses.
Neurogenesis analysis. Neurogenesis in the hippocampal dentate gyms (DG) area was presented by performing doublecortin (DCX) staining in fixed brain slices as previously described. DCX-positive (DCX^+) cell number was counted manually. The DG area was measured using NIS element software. DCX cell density was calculated by dividing the DCX cell number by the DG area to evaluate neurogenesis.

In test [6] the test system is 5×FAD mice. As to the kind of experiment: Synaptic density in hippocampal CA1 region of treated mice. Format: in vivo, mouse. The conditions noted are these: MK0677 1.5 mg/kg, daily i.p., one month. The protocol:
as §3
Synaptic density analysis. For synaptic density analysis, vesicular glutamate transporter 1(vGlutl)- and postsynaptic density 95 (PSD95)-stained channels were saved as two binary layers, the threshold for each channel defined separately and then applied to all the images. The overlapping areas were analyzed by using the “AND” operation in the “Binary Operation” dialogs of NIS element software. Hippocampal volume was measured as described in the previous section (amyloid plaque deposition analysis). The overlapping dots represent synapses and average synapse number per selected area volume was calculated to represent synaptic density.

Test [7] concerns 5×FAD mice. As to the kind of experiment: Amyloid plaque deposition analysis (hippocampus and cortex). Format: in vivo, mouse. The protocol:
Immunocytochemistry. Frozen sections were prepared as previously described. […] Nuclei were labeled with 4′,6-diamidino-2-phenylindole (DAPI, Thermo Fisher Scientific, #R37606, 1 drop/500 ul) as needed. Images were collected on a Nikon confocal microscope. Amyloid plaque deposition analysis. For amyloid plaque deposition analysis, amyloid plaque channel was subjected to “Binary” then “Define Threshold” in NIS element software. The threshold was set to include all the positive staining and the same setting was applied to all images. Volume measurement was then performed for all the plaques as well as each single plaque in both the hippocampal and cortical areas using the ROI selection option. Amyloid plaque-occupied percentage in the hippocampus or cortex and the average individual plaque volume was used to compare amyloid plaque deposition between 5×FAD saline and MK0677 treatment groups.

Another test concerns the target T3, Ghsr1α/Drd1 complex (Mus musculus, UniProt Q61616+Q99P50).
T3 construct: endogenous in cells; host or cells: primary mouse hippocampal neurons (P0-1, DIV14)
As to the kind of experiment: Duolink PLA of Ghsr1α/Drd1 complex in cultured hippocampal neurons. In kind it is cell-based. The conditions noted are these: oligomeric Aβ42 1 μM, 24 hours; 1.5 μM MK0677, 2 μM SKF81297, or in combination.
Text: as §1, §2

Test [8] concerns 5×FAD mice. Briefly: Microglia density, morphology and plaque-associated microglia analysis. In kind it is in vivo, mouse. As for the experimental part: Immunocytochemistry. Frozen sections were prepared as previously described. […] Nuclei were labeled with 4′,6-diamidino-2-phenylindole (DAPI, Thermo Fisher Scientific, #R37606, 1 drop/500 ul) as needed. Images were collected on a Nikon confocal microscope. Microglia morphology and plaque-associated microglia density analysis. Analysis of microglia morphology was done by producing three-dimensional (3D) reconstructions of cells using Imaris software (Bitplane, Imaris×64 9.0.2)[49]. Using the Filament algorithm, the software was able to calculate the length of each cell dendrite and number of branch points. This was done by first selecting the appropriate region of interest for the desired cell. If there were nearby cells, the somas of those cells were included in the region of interest. Since the software builds the dendrites based on extension from the largest set diameter, doing this can prevent unwanted filaments bridging the dendrites of two or more cells. The dendrite diameter parameters were set with the largest diameter being the soma size and the smallest diameter at 0.5 μm. To further prevent unwanted connections, the option to ‘Remove disconnected segments’ was used in the dendrite building menu with the distance threshold set at 5 μm. After the algorithm finished detecting the dendrites, non-specifically detected filaments were manually trimmed. Dendrite length and branch points were then calculated by the software. Plaque-associated microglia density was analyzed by using NIS element software. Microglia were counted under the following rule: if more than 50% of the microglia soma was within a plaque, it was counted as one plaque-associated microglia. Plaque volume was analyzed as described in the previous section (amyloid plaque deposition analysis).

Where [9] appears, read: MK0677 1.5 mg/kg, daily i.p., one month.
Where [10] appears, read: saline- vs MK0677-treated 5×FAD mice.

T1 sequence (Q99P50 with tags, fused parts or gaps INS247CCPGCC): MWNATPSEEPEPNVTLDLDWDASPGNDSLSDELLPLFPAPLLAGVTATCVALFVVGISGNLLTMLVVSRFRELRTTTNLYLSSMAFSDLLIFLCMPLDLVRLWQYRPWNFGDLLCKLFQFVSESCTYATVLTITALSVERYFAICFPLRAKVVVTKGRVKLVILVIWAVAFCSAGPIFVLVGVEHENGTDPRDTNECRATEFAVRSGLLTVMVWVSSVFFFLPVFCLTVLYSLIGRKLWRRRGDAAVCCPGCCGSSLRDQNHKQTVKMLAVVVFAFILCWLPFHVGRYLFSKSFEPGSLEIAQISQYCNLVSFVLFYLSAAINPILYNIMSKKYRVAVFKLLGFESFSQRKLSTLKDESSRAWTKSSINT
T2 sequence (Q99P50 whole entry): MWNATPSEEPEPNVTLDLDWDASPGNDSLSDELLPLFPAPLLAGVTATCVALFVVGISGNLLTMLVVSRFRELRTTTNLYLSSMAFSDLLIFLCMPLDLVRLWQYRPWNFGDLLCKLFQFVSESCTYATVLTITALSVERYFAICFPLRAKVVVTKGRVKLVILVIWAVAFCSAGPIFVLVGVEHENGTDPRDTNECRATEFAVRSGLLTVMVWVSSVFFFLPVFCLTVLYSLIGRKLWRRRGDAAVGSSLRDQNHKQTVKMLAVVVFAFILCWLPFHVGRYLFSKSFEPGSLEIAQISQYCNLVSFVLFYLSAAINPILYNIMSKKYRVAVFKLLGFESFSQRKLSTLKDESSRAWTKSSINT
T2 sequence (Q61616 whole entry, further chain): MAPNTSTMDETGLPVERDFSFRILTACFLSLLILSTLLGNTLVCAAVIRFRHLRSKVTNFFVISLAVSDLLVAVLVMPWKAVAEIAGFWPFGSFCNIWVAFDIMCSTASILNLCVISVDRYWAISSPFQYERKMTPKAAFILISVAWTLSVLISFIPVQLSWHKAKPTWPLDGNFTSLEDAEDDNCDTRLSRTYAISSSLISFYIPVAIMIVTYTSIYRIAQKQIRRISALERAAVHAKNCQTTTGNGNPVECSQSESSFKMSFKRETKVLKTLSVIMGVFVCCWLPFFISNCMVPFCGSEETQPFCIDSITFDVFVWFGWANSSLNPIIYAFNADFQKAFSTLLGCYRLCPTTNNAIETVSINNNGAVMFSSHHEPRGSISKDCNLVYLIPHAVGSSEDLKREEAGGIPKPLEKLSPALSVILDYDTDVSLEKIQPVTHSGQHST
T3 sequence (Q99P50 whole entry): as the sequence (Q99P50 whole entry) above
T3 sequence (Q61616 whole entry): as the sequence (Q61616 whole entry, further chain) above
Ghsr1α (Homo sapiens, UniProt Q92847), sequence (Q92847 whole entry): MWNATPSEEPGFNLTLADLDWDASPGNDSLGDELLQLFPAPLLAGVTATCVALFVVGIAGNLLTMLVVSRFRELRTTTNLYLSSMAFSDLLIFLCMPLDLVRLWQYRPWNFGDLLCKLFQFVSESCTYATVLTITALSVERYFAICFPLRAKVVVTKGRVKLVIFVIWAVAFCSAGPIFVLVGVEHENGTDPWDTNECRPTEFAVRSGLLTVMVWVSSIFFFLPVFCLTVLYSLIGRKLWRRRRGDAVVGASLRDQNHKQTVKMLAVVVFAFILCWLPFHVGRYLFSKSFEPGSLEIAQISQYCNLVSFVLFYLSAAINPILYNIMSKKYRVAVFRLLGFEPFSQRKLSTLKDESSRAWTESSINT

Turning to `CC(C)(N)C(=O)N[C@H](COCc1ccccc1)C(=O)N1CCC2(CC1)CN(S(C)(=O)=O)c1ccccc12` [MK0677], at Ghsr1α [1], the “FRET ratio (FFlAsH/FECFP), agonist-induced Ghsr1α activation” value is listed as “induced a decrease in FRET ratio”. For the same molecule, at Aβ/Ghsr1α complex, the Aβ/Ghsr1α complex formation entry is given as “not MK0677 or SKF81297 alone”. Also, the “neocortical Aβ plaques in young 5×FAD mice” value in the test with 5×FAD mice [2] is listed as “lowered neocortical Aβ plaques”. Besides, at Ghsr1α [3], the “potency relative to ghrelin” value is reported as “higher potency than ghrelin”. Besides, the “stimulus-evoked hippocampal LTP in 5×FAD slices” value in test [4] (slices from 4 month-old 5×FAD mice) is “no effect”. The “hippocampal LTP in non-Tg slices” value in test [4] (slices from 4 month-old non-Tg mice) is reported as “no effect”. In the test with 5×FAD mice [5], the “DCX+ cells, non-TG saline vs non-TG MK0677” value is “no significant difference”; the “DCX-positive cells in dentate gyri, 5×FAD mice” value is given as “remarkably augmented number of DCX-positive cells”; the “DCX-positive cells, Ghsr null mice” value is reported as “no response”. Also, in the test on 5×FAD mice [6], the “synaptic density, non-TG saline vs MK0677” value was “no significant difference” and the “synaptic loss in CA1 region, 5×FAD mice” value is recorded as “not significantly attenuated”. The “size of each single Aβ plaque, hippocampus” value with 5×FAD mice [7] (5×FAD mice, MK0677 1.5 mg/kg, daily i.p., 30 days) is given as “did not significantly alter”. Further, in the test with 5×FAD mice [7] (MK0677-treated 5×FAD mice), the “single plaque size, neocortex” value is reported as “failed to show any influence” and the “total plaque-occupied volume, neocortex” value is “failed to show any influence”. Besides, the Ghsr1α/Drd1 complex formation entry on Ghsr1α/Drd1 complex is “not the agonists alone”. Also, in the test with 5×FAD mice [8] (setting [9]), the “increased microglial density in the hippocampus, 5×FAD mice” value is recorded as “not prevented” and the “microglia density, non-TG saline vs MK0677” value is recorded as “no significant difference”. Further, in the test on 5×FAD mice [8] (MK0677-treated 5×FAD mice), the “density of plaque-associated microglia, neocortex” value is “failed to show any influence” and the “density of total microglia, neocortex” value is recorded as “failed to show any influence”. Besides, in the test on 5×FAD mice [8] (setting [10]), the “density of plaque-associated microglia, hippocampus” value is on record as “no significant difference”; the “microglia length of total process” value is recorded as “no significant difference”; the “microglia number of branch points” value is “no significant difference”.

Source of the values: patent US20220370471A1, “COMPOSITION AND METHOD FOR TREATMENT OF HIPPOCAMPAL SYNAPSE DYSFUNCTION AND COGNITIVE DEFICITS IN ALZHEIMER'S DISEASE” (BOARD OF REGENTS, THE UNIVERSITY OF TEXAS SYSTEM, priority 2019, published 2022).
